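These data come from cells grown in 96-well plates and exposed to compound for 48 hours at five concentrations. TGI is the concentration that stops growth completely.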
Legend:
Assay in all cases: NCI tumour cell line growth inhibition, 48 h
OVCAR-8 ovarian = system: OVCAR-8 ovarian
M14 melanoma = system: M14 melanoma
BT-549 breast = system: BT-549 breast
HL-60(TB) leukemia = system: HL-60(TB) leukemia
NCI-H522 lung = system: NCI-H522 lung
U251 CNS = system: U251 CNS
SK-MEL-28 melanoma = system: SK-MEL-28 melanoma
UO-31 renal = system: UO-31 renal
MDA-MB-231 breast = system: MDA-MB-231 breast
RPMI-8226 leukemia = system: RPMI-8226 leukemia
T-47D breast = system: T-47D breast
COLO 205 colon = system: COLO 205 colon
UACC-62 melanoma = system: UACC-62 melanoma
CCRF-CEM leukemia = system: CCRF-CEM leukemia
HCT-116 colon = system: HCT-116 colon
SNB-19 CNS = system: SNB-19 CNS
RXF 393 renal = system: RXF 393 renal
IGROV1 ovarian = system: IGROV1 ovarian
HT29 colon = system: HT29 colon
HS 578T breast = system: HS 578T breast
SW-620 colon = system: SW-620 colon
NCI-H23 lung = system: NCI-H23 lung
786-0 renal = system: 786-0 renal
NCI-H460 lung = system: NCI-H460 lung
LOX IMVI melanoma = system: LOX IMVI melanoma
NCI-H226 lung = system: NCI-H226 lung
HOP-62 NSCLC = system: HOP-62 NSCLC
SR leukemia = system: SR leukemia
MCF7 breast = system: MCF7 breast
A498 renal = system: A498 renal
SF-268 CNS = system: SF-268 CNS
OVCAR-4 ovarian = system: OVCAR-4 ovarian
MOLT-4 leukemia = system: MOLT-4 leukemia
MDA-MB-435 = system: MDA-MB-435
TK-10 renal = system: TK-10 renal
MDA-N = system: MDA-N
ACHN renal = system: ACHN renal
SK-OV-3 ovarian = system: SK-OV-3 ovarian
CAKI-1 renal = system: CAKI-1 renal
SF-295 CNS = system: SF-295 CNS
UACC-257 melanoma = system: UACC-257 melanoma
SF-539 CNS = system: SF-539 CNS
HCT-15 colon = system: HCT-15 colon
OVCAR-5 ovarian = system: OVCAR-5 ovarian
A549 NSCLC = system: A549 NSCLC
DU-145 prostate = system: DU-145 prostate
KM12 colon = system: KM12 colon
HOP-92 NSCLC = system: HOP-92 NSCLC
K-562 leukemia = system: K-562 leukemia
SK-MEL-2 melanoma = system: SK-MEL-2 melanoma
SN12C renal = system: SN12C renal
HCC-2998 colon = system: HCC-2998 colon
EKVX NSCLC = system: EKVX NSCLC
MALME-3M melanoma = system: MALME-3M melanoma
OVCAR-3 ovarian = system: OVCAR-3 ovarian
NCI/ADR-RES ovarian = system: NCI/ADR-RES ovarian
SNB-75 CNS = system: SNB-75 CNS
SK-MEL-5 melanoma = system: SK-MEL-5 melanoma
PC-3 prostate = system: PC-3 prostate

## C=C[C@@]1(C)CC(=O)[C@]2(O)[C@@]3(C)[C@@H](O)CCC(C)(C)[C@@H]3[C@H](O)[C@@H](OC(C)=O)[C@@]2(C)O1
OVCAR-8 ovarian
  TGI: > 100 µM
M14 melanoma
  TGI: > 100 µM
BT-549 breast
  TGI: > 100 µM
HL-60(TB) leukemia
  TGI: > 100 µM
NCI-H522 lung
  TGI: > 100 µM
U251 CNS
  TGI: > 100 µM
SK-MEL-28 melanoma
  TGI: > 100 µM
UO-31 renal
  TGI: > 100 µM
MDA-MB-231 breast
  TGI: > 100 µM
RPMI-8226 leukemia
  TGI: 95.4 µM
T-47D breast
  TGI: > 100 µM
COLO 205 colon
  TGI: > 100 µM
UACC-62 melanoma
  TGI: > 100 µM
CCRF-CEM leukemia
  TGI: > 100 µM
HCT-116 colon
  TGI: > 100 µM
SNB-19 CNS
  TGI: > 100 µM
RXF 393 renal
  TGI: > 100 µM
IGROV1 ovarian
  TGI: > 100 µM
HT29 colon
  TGI: > 100 µM
HS 578T breast
  TGI: > 100 µM
SW-620 colon
  TGI: > 100 µM
NCI-H23 lung
  TGI: > 100 µM
786-0 renal
  TGI: > 100 µM
NCI-H460 lung
  TGI: > 100 µM
LOX IMVI melanoma
  TGI: > 100 µM
NCI-H226 lung
  TGI: > 100 µM
HOP-62 NSCLC
  TGI: > 100 µM
SR leukemia
  TGI: > 100 µM
MCF7 breast
  TGI: > 100 µM
A498 renal
  TGI: > 100 µM
SF-268 CNS
  TGI: > 100 µM
OVCAR-4 ovarian
  TGI: > 100 µM
MOLT-4 leukemia
  TGI: > 100 µM
MDA-MB-435
  TGI: > 100 µM
TK-10 renal
  TGI: > 100 µM
MDA-N
  TGI: > 100 µM
ACHN renal
  TGI: > 100 µM
SK-OV-3 ovarian
  TGI: > 100 µM
CAKI-1 renal
  TGI: > 100 µM
SF-295 CNS
  TGI: > 100 µM
UACC-257 melanoma
  TGI: > 100 µM
SF-539 CNS
  TGI: > 100 µM
HCT-15 colon
  TGI: > 100 µM
OVCAR-5 ovarian
  TGI: > 100 µM
A549 NSCLC
  TGI: > 100 µM
DU-145 prostate
  TGI: > 100 µM
KM12 colon
  TGI: > 100 µM
HOP-92 NSCLC
  TGI: > 100 µM
K-562 leukemia
  TGI: > 100 µM
SK-MEL-2 melanoma
  TGI: > 100 µM
SN12C renal
  TGI: > 100 µM
HCC-2998 colon
  TGI: > 100 µM
EKVX NSCLC
  TGI: > 100 µM
MALME-3M melanoma
  TGI: > 100 µM
OVCAR-3 ovarian
  TGI: > 100 µM
NCI/ADR-RES ovarian
  TGI: > 100 µM
SNB-75 CNS
  TGI: > 100 µM
SK-MEL-5 melanoma
  TGI: > 100 µM
PC-3 prostate
  TGI: > 100 µM

## COc1ccc2c(c1)CCC(CN1CCN(CCOC(c3ccccc3)c3ccccc3)CC1)C2O (stereo not drawn)
OVCAR-8 ovarian
  TGI: 28.9 µM
M14 melanoma
  TGI: 29.1 µM
BT-549 breast
  TGI: 27.1 µM
HL-60(TB) leukemia
  TGI: 15.2 µM
NCI-H522 lung
  TGI: 31 µM
U251 CNS
  TGI: 28 µM
SK-MEL-28 melanoma
  TGI: 31.9 µM
UO-31 renal
  TGI: 30 µM
MDA-MB-231 breast
  TGI: 29.7 µM
RPMI-8226 leukemia
  TGI: 35.3 µM
T-47D breast
  TGI: 47.8 µM
COLO 205 colon
  TGI: 27.7 µM
UACC-62 melanoma
  TGI: 26.7 µM
CCRF-CEM leukemia
  TGI: 53.4 µM
HCT-116 colon
  TGI: 24.8 µM
SNB-19 CNS
  TGI: 33.6 µM
RXF 393 renal
  TGI: 29.3 µM
IGROV1 ovarian
  TGI: 30.1 µM
HT29 colon
  TGI: 18.2 µM
HS 578T breast
  TGI: 41.3 µM
SW-620 colon
  TGI: 60.1 µM
NCI-H23 lung
  TGI: 28.9 µM
786-0 renal
  TGI: 32.6 µM
NCI-H460 lung
  TGI: 35.8 µM
LOX IMVI melanoma
  TGI: 32.5 µM
NCI-H226 lung
  TGI: 34.1 µM
HOP-62 NSCLC
  TGI: 38.3 µM
SR leukemia
  TGI: 69.8 µM
MCF7 breast
  TGI: 37.5 µM
A498 renal
  TGI: 23.1 µM
SF-268 CNS
  TGI: 31.5 µM
OVCAR-4 ovarian
  TGI: 33.2 µM
MOLT-4 leukemia
  TGI: 35.7 µM
MDA-MB-435
  TGI: 32 µM
TK-10 renal
  TGI: 28.6 µM
MDA-N
  TGI: 28.1 µM
ACHN renal
  TGI: 25.6 µM
SK-OV-3 ovarian
  TGI: 35.8 µM
CAKI-1 renal
  TGI: 31.5 µM
SF-295 CNS
  TGI: 36 µM
UACC-257 melanoma
  TGI: 27.2 µM
SF-539 CNS
  TGI: 26.4 µM
HCT-15 colon
  TGI: 23 µM
OVCAR-5 ovarian
  TGI: 30.5 µM
A549 NSCLC
  TGI: 36 µM
DU-145 prostate
  TGI: 38.9 µM
KM12 colon
  TGI: 44.6 µM
HOP-92 NSCLC
  TGI: 28.5 µM
K-562 leukemia
  TGI: 44.1 µM
SK-MEL-2 melanoma
  TGI: 33 µM
SN12C renal
  TGI: 26.8 µM
HCC-2998 colon
  TGI: 16.1 µM
EKVX NSCLC
  TGI: 24.4 µM
MALME-3M melanoma
  TGI: 32.4 µM
OVCAR-3 ovarian
  TGI: 31.8 µM
NCI/ADR-RES ovarian
  TGI: 27.4 µM
SNB-75 CNS
  TGI: 34.5 µM
SK-MEL-5 melanoma
  TGI: 21.9 µM
PC-3 prostate
  TGI: 26.3 µM
